Test results reported in patent publication US20190030053A1, “COMPOSITION FOR INCREASING EXPRESSION OF PGC-1alpha” (BENEBIOSIS CO., LTD., priority 2016, published 2019).
“Also recorded” adds a separate entry of the source.

Columns and labels:
telomerase = assay: Telomerase activity (TRAP) in vivo, aorta of aging stimulation models; parameters: species or system mouse; conditions: oral 0.1 mg/kg/day
Procedure: (§1) In order to investigate the gene expression changes by body parts by the treatment with SL (3′-SL & 6′-SL) compositions in aging stimulation models, 4-week-old male aging stimulation model mice (SAM P1/Sku Slc) were purchased from Central Lab Animal (Korea). Water was freely accessible, and a commercially available pellet feed (Dooyeul Biotech, Korea) was given for one week. […]
In FIGS. 18a and 18b, the telomerase activity was measured using TRAP protocol (Wright et al., 1995). […] The fluorescence of the thus obtained TRAP product was measured using a fluorescent plate reader to quantify telomerase activity. Relative telomerase activity was normalized by the ratio of native […] to sulforhodamine (internal control standard), expressed as a percentage. […]

[1] = tested on: mouse aortic smooth muscle cells (MASMs); assay: Intracellular H2O2 (ROS values, H2DCFDA) in MASMs of arteriosclerosis model mice; format: cell-based; conditions: MASMs from PGC-1α+/+ApoE−/− mice; SL added to culture liquid
Procedure: For cell-level tests, mouse aortic smooth muscle cells (MASMs) were isolated from the control group fed with a high-fat diet (Rodent Diet with 60 kcal % fat) without SL administration (Griendling et al., 1991), and the SL (3′-SL & 6′-SL) compositions were added to the culture liquid, followed by comparison. For intracellular H2O2 measurement (ROS values), the cells were cultured in 12-well culture plates immersed in 0.1% bovine calf serum. The intracellular ROS values were measured using H2DCFDA. For assay, the cells were cultured together with H2DCFDA in HBSS buffer for 30 minutes. The cells were trypsinized, washed, and lysed in HBSS. The fluorescence values were measured immediately by a CytoFluor plate reader (FIG. 19a).
In FIGS. 19a and 19b, MASMs were extracted from the model mouse (PGC-1α^+/+ApoE^−/−) control group, and the SL (3′-SL & 6′-SL) compositions were added to the culture liquid to conduct comparison.
FIGS. 19a and 19b show the measurement results of intercellular H2O2 (ROS values) (FIG. 19a) and the measurement results of mitochondrial superoxide production (FIG. 19b). MASMs were extracted from the model mice (PGC-1α^+/+ApoE^−/−), and the SL (3′-SL & 6′-SL) compositions were added to the culture liquid to conduct comparison.

PGC-1α and related genes = assay: Gene expression by body parts in aging stimulation models; format: in vivo, mouse; conditions: SAM P1/Sku Slc mice, oral 0.1 mg/kg/day, 12 weeks, organs and skeletal muscles
Procedure: as §1
Sialyllactose or DW was orally administered daily. […] The dietary intake and body weight change were measured every 5 days. […]
The gene expression changes by administration of the SL (3′-SL & 6′-SL) compositions were quantitatively compared for eight main organs (heart, hippocampus, brain, spinal cord, lung, liver, spleen, and kidney), three skeletal muscles (soleus muscle, quadriceps femoris muscle, and gastrocnemius muscle), and the like. RNA was extracted by TRIzol agent (Invitrogen). cDNA was synthesized by using RNA, which has been extracted as above and quantified, and a reverse transcription system (Promega, USA). The expression patterns of PGC-1α and related genes were measured by using pre-designed primers and probes (Applied Biosystems; PGC-1α, Mm00447181_m1, GAPDH, and Mm99999915_q1) for the synthesized cDNA and analysis targets (Fndc5, PGC-1α, Erra, UCP1, SOD2, and GPX1). […]

Row | Structure (SMILES) | telomerase activity in aorta sample (in vivo) (telomerase) | intracellular H2O2 (ROS values) [1] | expression levels of analysis targets (Fndc5, PGC-1α, Erra, UCP1, SOD2, GPX1) vs control group (PGC-1α and related genes) | expression levels of analysis targets (Fndc5, PGC-1α, Erra, UCP1, SOD2, GPX1) vs control group (PGC-1α and related genes; 0.1 mg/kg/day)
1 | CC(=O)N[C@H]1[C@H]([C@H](O)[C@H](O)CO)O[C@@](OC[C@H]2O[C@@H](O[C@H]3[C@H](O)[C@@H](O)[C@H](O)O[C@@H]3CO)[C@H](O)[C@@H](O)[C@H]2O)(C(=O)O)C[C@@H]1O [6′-SL, α-NeuNAc-(2→6)-β-D-Gal-(1→4)-D-Glc] | increased telomerase activity | dropped the ROS values | significant increases | 
2 | CC(=O)N[C@H]1[C@H]([C@H](O)[C@H](O)CO)O[C@@](O[C@H]2[C@@H](O)[C@@H](CO)O[C@@H](O[C@H]3[C@H](O)[C@@H](O)C(O)O[C@@H]3CO)[C@@H]2O)(C(=O)O)C[C@@H]1O (stereo partly drawn) [3′-SL, α-NeuNAc-(2→3)-β-D-Gal-(1→4)-D-Glc] | increased telomerase activity | dropped the ROS values |  | significant increases; also recorded: relatively low compared with 6′-SL
